In data set [1] the test system is stem cell and progenitor cell viability. The data set is described as follows: Toxicity classification from MTT screening across cell types. The following applies: based on effects on stem cell and progenitor cell viability. The procedure:
(§1) The cells were exposed to the test compounds for 24 h and cytotoxicity was quantified with MTT and LDH assays as described previously (Talman et al. [2011]). For the determination of cell membrane integrity, 50 µl of medium from each well was transferred onto a new 96-well plate followed by addition of 50 µl of substrate solution containing 1.3 mM β-nicotinamide adenine dinucleotide, 660 µM iodonitrotetrazolium, 54 mM L(+)-lactic acid, 280 µM phenazine methosulphate and 0.2 M Tris–HCl (pH 8.0). After a 30-min incubation, the reaction was stopped by adding 50 µl of 1 M acetic acid to each well and absorbance was measured at 490 nm using Victor2 plate reader (PerkinElmer, Turku, Finland). Spontaneous LDH release was measured from untreated cells, maximal LDH release from cells lysed with 0.9% Triton X-100 and background absorbance was measured from wells without cells. After background extraction, cytotoxicity was calculated as follows: cytotoxicity (%) = [(sample − spontaneous LDH release)/(maximal LDH release − spontaneous LDH release)] × 100. For quantification of metabolic activity, 3-(4,5-dimethylthiazol-2-yl)-2,5-diphenyltetrazolium bromide (MTT) was added to the cells at a final concentration of 0.5 mg/ml followed by 2 h incubation in cell culture conditions. The medium was then aspirated and formazan crystals were solubilized in DMSO. Absorbance was measured at 550 nm and absorbance at 650 nm was subtracted as background.
When comparing the effects of different compounds within each individual cell type, the compounds can be grouped into two main classes: toxic (3i-1000, 3i-1120, 3i-1148 and 3i-1229) and non-toxic (3i-1047, 3i-1051, 3i-1165, and 3i-1228) compounds. Based on the hiPSC toxicity data, 3i-1148 can be considered as the most toxic compound with an IC50 of 0.30 µM (Fig. 5b).

The subject of data set [2] is mESC derivatives from day 5 embryoid bodies (D5EBs). Kind of data set: MTT assay in D5EBs. Type of data set: cell-based, mouse. The settings on record: 24 h. How it is done: as §1
Mouse embryonic stem cells (mESCs), embryoid bodies (EBs), and primary mouse embryonic fibroblasts (MEFs) were used for toxicity experiments. E14 mESCs were cultured in feeder-free conditions on plates coated with 0.1% gelatin in DMEM with 15% FBS, GlutaMax, MEM non-essential amino acids, 2-mercaptoethanol, and leukemia inhibitory factor (LIF). For toxicity assays, the cells were dissociated with TrypLe and plated at 5,000 cells/well in gelatin-coated 96-well plates 24 hours prior to compound exposures. To induce differentiation of mESCs, cells were plated on day 0 in 20 µl hanging drops at 25,000 cells/ml in inverted V-bottom plates in DMEM with 20% FBS and with all above supplements except LIF. On day 2 medium was added to EBs, and the EBs were dissociated with TrypLe and plated at 5,000 cells/well in gelatin-coated 96-well plates on day 5 and exposed to test compounds 24 later. Primary MEFs were cultured on 0.1% gelatin-coated plates in DMEM with 10% […]
1640 without glucose with B-27 supplement in order to purify cardiomyocytes. From day 15 onwards the cells were maintained in RPMI 1640 supplemented with B-27 (RB+ins). Beating hiPSC-CMs were dissociated between days 15 and 22 by incubating them in cell dissociation solution containing 40% enzyme-free cell dissociation buffer, 40% RPMI 1640 and 20% trypsin-EDTA (final trypsin concentration 0.01%) for 7–8 min, whereafter the cells were collected and trypsin was inactivated in RB+ins supplemented with 10% FBS. After centrifugation the cells were suspended in RB+ins with 10% FBS containing 10 µM ROCK inhibitor and seeded at 15,000 cells/well (cytotoxicity assays) or 20,000 cells/well (high content analysis) in gelatin-coated 96-well plates. The cells were let to attach for 2 days at 37 °C in standard conditions, whereafter the compounds were added in RB+ins. In general, the differentiation yielded an almost pure (>95%) cardiomyocyte culture.
Syntheses and characterization of compounds
Materials and general procedures. […]
(In general: Tetrazolium assays rely on reduction of a dye to a coloured formazan, in cell work by metabolically active cells.)

In the case of `CCN(CC)c1ccc(NC(=O)c2c(-c3ccccc3)noc2C)cc1` [3i-1000], the “toxicity class (toxic / non-toxic)” value in data set [1] is listed as “toxic”. The “reduction in metabolic activity” value in data set [2] (at ≥ 10 µM) is reported as “moderate, but not statistically significant”.

For the compound `CCN(CC)c1ccc(NC(=O)c2cc(C)oc2-c2ccccc2)cc1` [3i-1148], the “toxicity class (toxic / non-toxic)” value in data set [1] is listed as “toxic”. Further, the “sensitivity of cell type to compound (viability)” value (shortened to “sensitivity of cell type”) in data set [2] is given as “sensitive”.

For the compound `CCN(CC)c1ccc(NC(=O)c2c(C)noc2-c2cc(C)on2)cc1` [3i-1047], the “toxicity class (toxic / non-toxic)” value in data set [1] is listed as “non-toxic”. Besides, the reduction in viability in data set [2] (30 µM) is listed as 38–45%.

Regarding `CCC(=O)N(Cc1ccc(N(CC)CC)cc1)c1c(-c2ccccc2)noc1C` [3i-1120], the “toxicity class (toxic / non-toxic)” value in data set [1] is given as “toxic”. Also, the “sensitivity of cell type” value in data set [2] is “sensitive”.

For `COc1ccc(-c2cc(N)nn2C(=O)c2c(-c3ccccc3)noc2C)cc1` [3i-1229], the “toxicity class (toxic / non-toxic)” value in data set [1] is “toxic”. The “sensitivity of cell type” value in data set [2] is “sensitive”.
